From patent publication US11155597B2, “Relaxin1 derived peptides for use in immunotherapy” (Immatics Biotechnologies GmbH, priority 2015, dated 2021)

Test system: CD8+ T cells of healthy HLA-A*02+ donors
Assay: In vitro immunogenicity: T-cell priming with aAPCs loaded with peptide/MHC and anti-CD28, pMHC multimer readout
Format: cell-based, human
Settings: for Wells positive [%]: HLA-A*02 restricted peptides, Table 6B
From the text: In order to obtain information regarding the immunogenicity of the TUMAPs of the present invention, the inventors performed investigations using an in vitro T-cell priming assay based on repeated stimulations of CD8+ T cells with artificial antigen presenting cells (aAPCs) loaded with peptide/MHC complexes and anti-CD28 antibody.
In order to perform in vitro stimulations by artificial antigen presenting cells loaded with peptide-MHC complex (pMHC) and anti-CD28 antibody, the inventors first isolated CD8+ T cells from fresh HLA-A*02 leukapheresis products via positive selection using CD8 microbeads (Miltenyi Biotec, Bergisch-Gladbach, Germany) of healthy donors obtained from the University clinics Mannheim, Germany, after informed consent. PBMCs and isolated CD8+ lymphocytes were incubated in T-cell medium (TCM) until use consisting of RPMI-Glutamax (Invitrogen, Karlsruhe, Germany) supplemented with 10% heat inactivated human AB serum (PAN-Biotech, Aidenbach, Germany), 100 U/ml Penicillin/100 μg/ml Streptomycin (Cambrex, Cologne, Germany), 1 mM sodium pyruvate (CC Pro, Oberdorla, Germany), 20 μg/ml Gentamycin (Cambrex). 2.5 ng/ml IL-7 (PromoCell, Heidelberg, Germany) and 10 U/ml IL-2 (Novartis Pharma, Nürnberg, Germany) were also added to the TCM at this step. Generation of pMHC/anti-CD28 coated beads, T-cell stimulations and readout was performed in a highly defined in vitro system using four different pMHC molecules per stimulation condition and 8 different pMHC molecules per readout condition.
The purified co-stimulatory mouse IgG2a anti human CD28 Ab 9.3 (Jung et al., 1987) was chemically biotinylated using Sulfo-N-hydroxysuccinimidobiotin as recommended by the manufacturer (Perbio, Bonn, Germany). Beads used were 5.6 μm diameter streptavidin coated polystyrene particles (Bangs Laboratories, Illinois, USA).
pMHC used for positive and negative control stimulations were A*0201/MLA-001 (peptide […] (SEQ ID NO. 289) from modified Melan-A/MART-1) and A*0201/DDX5-001 ([…] from DDX5, SEQ ID NO. 290), respectively.
800.000 beads/200 μl were coated in 96-well plates in the presence of 4×12.5 ng different biotin-pMHC, washed and 600 ng biotin anti-CD28 were added subsequently in a volume of 200 μl. Stimulations were initiated in 96-well plates by co-incubating 1×10^6 CD8+ T cells with 2×10^5 washed coated beads in 200 μl TCM supplemented with 5 ng/ml IL-12 (PromoCell) for 3 days at 37° C. Half of the medium was then exchanged by fresh TCM supplemented with 80 U/ml IL-2 and incubating was continued for 4 days at 37° C. This stimulation cycle was performed for a total of three times. For the pMHC multimer readout using 8 different pMHC molecules per condition, a two-dimensional combinatorial coding approach was used as previously described (Andersen et al., 2012) with minor modifications encompassing coupling to 5 different fluorochromes. Finally, multimeric analyses were performed by staining the cells with Live/dead near IR dye (Invitrogen, Karlsruhe, Germany), CD8-FITC antibody clone SK1 (BD, Heidelberg, Germany) and fluorescent pMHC multimers. For analysis, a BD LSRII SORP cytometer equipped with appropriate lasers and filters was used. Peptide specific cells were calculated as percentage of total CD8+ cells. Evaluation of multimeric analysis was done using the FlowJo software (Tree Star, Oregon, USA). In vitro priming of specific multimer+CD8+ lymphocytes was detected by comparing to negative control stimulations.
Exemplary flow cytometry results after TUMAP-specific multimer staining for peptide of the invention are shown in FIG. 3 together with corresponding negative controls.

Substance	Wells positive [%]	other results
260 (ALNESLVEC; listed as Homo sapiens) [compound 260]	+ (<20% = +)	
9 (SLITGQDLLSV; listed as Homo sapiens) [compound 9]	+ (<20% = +)	
17 (GLLPSAESIKL; listed as Homo sapiens) [compound 17]	+ (<20% = +)	
29 (KMISAIPTL; listed as Homo sapiens) [compound 29]	+ (<20% = +)	
267 (YLLDMPLWYL; listed as Homo sapiens) [compound 267]	+ (<20% = +)	
121 (ALYVQAPTV; listed as Homo sapiens) [compound 121]	+ (<20% = +)	
287 (KIQEILTQV; listed as Homo sapiens) [compound 287]		in vitro immunogenicity: wells (percentage of positive wells, Table 6A): + (<20% = +)
254 (ALGDKFLLRV; listed as Homo sapiens) [compound 254]	+ (<20% = +)	
77 (ALYGNVQQV; listed as Homo sapiens) [compound 77]	+ (<20% = +)	
101 (SLLEVNEASSV; listed as Homo sapiens) [compound 101]	+ (<20% = +)	
66 (AMFPDTIPRV; listed as Homo sapiens) [compound 66]	+ (<20% = +)	
4 (VLFGELPAL; listed as Homo sapiens) [compound 4]	+ (<20% = +)	
242 (KLQEEIPVL; listed as Homo sapiens) [compound 242]	+ (<20% = +)	
288 (SLYKGLLSV; listed as Homo sapiens) [compound 288]		in vitro immunogenicity: donors (percentage of positive donors, Table 6A): ++++ (> = 70% = ++++)
97 (KLFEKSTGL; listed as Homo sapiens) [compound 97]	+ (<20% = +)	
233 (SLFESLEYL; listed as Homo sapiens) [compound 233]	+ (<20% = +)	
89 (SLAETIFIV; listed as Homo sapiens) [compound 89]	+ (<20% = +)	
264 (TLHDQVHLL; listed as Homo sapiens) [compound 264]	+ (<20% = +)	
246 (ALAGIVTNV; listed as Homo sapiens) [compound 246]	+ (<20% = +)	
257 (KLIDHQGLYL; listed as Homo sapiens) [compound 257]	+ (<20% = +)	
14 (YTFSGDVQL; listed as Homo sapiens) [compound 14]	+ (<20% = +)	
157 (ILQDGQFLV; listed as Homo sapiens) [compound 157]	+ (<20% = +)	
50 (ILLSVLHQL; listed as Homo sapiens) [compound 50]	+ (<20% = +)	
236 (KMSELQTYV; listed as Homo sapiens) [compound 236]	+ (<20% = +)	
263 (SIIEYLPTL; listed as Homo sapiens) [compound 263]	+ (<20% = +)	
35 (VIIKGLEEI; listed as Homo sapiens) [compound 35]	+ (<20% = +)	
27 (GLLGKVTSV; listed as Homo sapiens) [compound 27]	+ (<20% = +)	
102 (GLYPVTLVGV; listed as Homo sapiens) [compound 102]	+ (<20% = +)	
255 (FLMKNSDLYGA; listed as Homo sapiens) [compound 255]	+ (<20% = +)	
